Structures are written as SMILES.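 48-hour exposure; five concentrations; linearly interpolated endpoints. GI50: concentration for 50% inhibition of growth.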 Activity calls are given as the source filed them. Rule as the data show it: active = GI50 up to about 1.1 µM and inactive = higher.

Common to all, as to test: DTP human tumour cell line panel, 48 h
Assay [1] has as its system MDA-N.
The test system of assay [2] is SK-MEL-2.
Assay [3] relates to T47D.
The test system of assay [4] is Hs-578T.
Assay [5] deals with CCRF-CEM.
For assay [6], the system named is SF-295.
The test system of assay [7] is SNB-19.
Assay [8] relates to SK-MEL-5.
The test system of assay [9] is M14.
Assay [10] concerns RXF 393.
Assay [11] has as its system TK-10.
Assay [12] has as its system HCT-116.
The test system of assay [13] is EKVX.
In assay [14] the test system is SK-MEL-28.
For assay [15], the system named is PC-3.
Assay [16] concerns COLO 205.
Assay [17] relates to UACC-257.
The subject of assay [18] is MCF7.
In assay [19] the test system is BT-549.

Regarding `CCOP(=O)(O)C(C)(C)NC`, the GI50 in assay [1], in assay [2], in assay [3], in [4], in assay [5] and in assay [6] was > 100 µM (inactive) in each case. The GI50 in assay [7], in assay [8], in [9], in assay [10], in assay [11] and in assay [12] was > 100 µM (inactive) in each case. The GI50 in assay [13], in assay [14], in [15], in assay [16] and in [17] was > 100 µM (inactive) throughout.

Turning to `CC(C)C1CC=NN1C(=O)OC(C)(C)C` (stereo unspecified), the GI50 in [1], in assay [18], in assay [3], in assay [4], in assay [5] and in [6] was > 100 µM (inactive) each time. Moreover, the GI50 in [8], in [9], in assay [10], in [11], in [12] and in assay [13] was > 100 µM (inactive) throughout. Moreover, the GI50 in [16] and in [17] was > 100 µM (inactive) in each case.

As to `CC1=C(C#N)C(C#N)(C#N)C(NN(C)C)C1` (stereo unspecified), the GI50 was 10.1 µM (inactive) in assay [1]; 10.6 µM (inactive) in assay [18]; 20.2 µM (inactive) in assay [2]; 6.15 µM (inactive) in assay [3]; > 100 µM (inactive) in [4]; 3.59 µM (inactive) in assay [5]. Also, the GI50 in assay [6] is 24.5 µM (inactive); in assay [7], > 10 µM (inactive); in assay [8], 4.49 µM (inactive); in assay [9], 29 µM (inactive); in assay [10], 13 µM (inactive); in assay [11], 17 µM (inactive). Moreover, the GI50 is 11 µM (inactive) in assay [12]; 14 µM (inactive) in [13]; 23 µM (inactive) in [14]; 20.4 µM (inactive) in [15]; 3.83 µM (inactive) in [16]; 10.6 µM (inactive) in assay [17].

For the molecule `CC12CC3CC/C(=N\O)C(C1)C3(N1CCOCC1)C/C2=N/O` (stereo unspecified), the GI50 in assay [1], in assay [18], in assay [2], in assay [3], in assay [5] and in [6] was > 100 µM (inactive) each time. The GI50 in [7], in assay [8], in [9], in [10], in [12] and in [13] was > 100 µM (inactive) throughout. Besides, the GI50 in assay [14], in [15], in assay [16] and in assay [17] was > 100 µM (inactive) each time.

For `C=C1C(=O)[C@@]23CC[C@@H]4[C@@]5(C)CCC[C@@]4(OC5=O)C2(C)CC[C@]1(OC)C3` (stereo partly specified), the concentration for 50% growth inhibition (GI50) was 0.52 µM (active) in assay [1]; 0.255 µM (active) in [18]; 1.06 µM (active) in assay [2]; 1.39 µM (inactive) in [3]; 1.96 µM (inactive) in [4]; 0.0605 µM (active) in assay [5]. Besides, the GI50 was 3.4 µM (inactive) in assay [6]; 1.83 µM (inactive) in [7]; 1.59 µM (inactive) in assay [8]; 1.72 µM (inactive) in assay [9]; 1.38 µM (inactive) in assay [11]; 0.423 µM (active) in assay [12]. Moreover, the GI50 in assay [13] was 9.18 µM (inactive); in assay [14] it was 1.65 µM (inactive); in [15] it was 1.05 µM (active); in assay [16] it was 2.38 µM (inactive); in assay [17], 1.51 µM (inactive).

As to `O=S(=O)(c1cc(Cl)ccc1Cl)n1ccnc1`, the GI50 in assay [18] was 35 µM (inactive); in [2], 30.5 µM (inactive); in assay [3] it was 48.3 µM (inactive); in [4], 51.4 µM (inactive); in assay [5], 37.3 µM (inactive); in assay [6] it was > 100 µM (inactive). Also, the GI50 in assay [7] is 70.8 µM (inactive); in [8], 18.8 µM (inactive); in [19], 35.4 µM (inactive); in assay [9], 30.3 µM (inactive); in assay [10], 28 µM (inactive); in [11], 24.1 µM (inactive). The GI50 in assay [12] is 31.3 µM (inactive); in assay [13], 61.2 µM (inactive); in assay [14] it was > 100 µM (inactive); in assay [15], 47.8 µM (inactive); in [16], 17.9 µM (inactive); in assay [17], 26.7 µM (inactive).

Regarding `O=c1[nH]c2ccc([N+](=O)[O-])c(Cl)c2c2ccccc12`, the 50% growth inhibitory concentration (GI50) in [18] was 0.258 µM (active); in [2], 6.1 µM (inactive); in assay [3], 19.8 µM (inactive); in assay [4], 3.86 µM (inactive); in [5] it was 0.361 µM (active); in [6], 2.62 µM (inactive). Besides, the GI50 in assay [7] is 1.91 µM (inactive); in assay [8] it was 3.84 µM (inactive); in [19] it was 4.04 µM (inactive); in assay [9] it was 4.81 µM (inactive); in [11] it was 1.37 µM (inactive); in assay [12], 0.313 µM (active). Also, the GI50 is 5.9 µM (inactive) in assay [13], 11 µM (inactive) in assay [14], 5.18 µM (inactive) in assay [16] and 2.42 µM (inactive) in assay [17].

Consider `COc1cc2c(cc1OCCCCOc1cc3nc(C)nc(Cl)c3cc1OC)N=C[C@@H]1CCCN1C2=O`, for which the GI50 in [18] is 3.03 µM (inactive); in assay [2], 1.95 µM (inactive); in [3], 15.3 µM (inactive); in assay [4], 1.99 µM (inactive); in [6], 2.43 µM (inactive); in assay [7], 17.4 µM (inactive). Besides, the GI50 in [8] was 1.77 µM (inactive); in assay [19] it was 2.17 µM (inactive); in assay [9], 1.88 µM (inactive); in assay [10], 2.12 µM (inactive); in [11] it was 2.34 µM (inactive); in [12], 2.21 µM (inactive). For the same molecule, the GI50 in [13] was 4.73 µM (inactive); in assay [14] it was 2.34 µM (inactive); in assay [15], 3.11 µM (inactive); in assay [16] it was 19.1 µM (inactive); in [17], 2.29 µM (inactive).

Consider `CC(=NNC(=S)Nc1ccc(C)cc1)c1cccc(C(C)=NNC(=S)Nc2ccc(C)cc2)n1`, for which the GI50 in assay [1] is 19.9 µM (inactive); in assay [18] it was > 100 µM (inactive); in assay [2] it was 68.7 µM (inactive); in assay [3], 29.6 µM (inactive); in [4] it was 41.1 µM (inactive); in assay [5] it was 7.5 µM (inactive). Moreover, the GI50 in assay [6] was 11 µM (inactive); in assay [7], 36.3 µM (inactive); in assay [8] it was 6.44 µM (inactive); in assay [9], 8.89 µM (inactive); in assay [10], 14.4 µM (inactive); in assay [11], 60.1 µM (inactive). The GI50 was 7.33 µM (inactive) in assay [12]; 21.5 µM (inactive) in [13]; > 100 µM (inactive) in [14]; 17.7 µM (inactive) in assay [15]; 3.83 µM (inactive) in [16]; 13.9 µM (inactive) in assay [17].

The GI50 is the concentration at which growth is held to half of that of the control.

The values above are taken from ChEMBL document CHEMBL1201862, “PubChem BioAssay data set” (2004).
